Measured values as given in the NIST ThermoML archive (doi:10.1016/j.jct.2005.10.004).
Several values for one entry are separate records, joined by “and”; a condition that tells them apart may be missing. Equal values may be shown once. Numbers after ± are expanded uncertainties.

Assay: xn = mol fraction of the nth substance listed
Settings: Gas, Buoyancy - hydrostatic balance with magnetic suspension - one sinker

N#N [nitrogen] + C
Settings | mass density
240 K, 2107.5 kPa, x2 = 0.8998 | 19.5904 ± 0.0063 kg/m3 and 19.5908 ± 0.0063 kg/m3
240 K, 4055.5 kPa, x2 = 0.8998 | 40.6283 ± 0.01 kg/m3
240 K, 8017.2 kPa, x2 = 0.8 | 96.5565 ± 0.023 kg/m3
240 K, 8864.8 kPa, x2 = 0.8 | 109.578 ± 0.025 kg/m3
240 K, 12048 kPa, x2 = 0.8 | 159.33 ± 0.036 kg/m3
240 K, 13511 kPa, x2 = 0.8998 | 181.648 ± 0.041 kg/m3
240.01 K, 1951.7 kPa, x2 = 0.8 | 19.1493 ± 0.0062 kg/m3 and 19.149 ± 0.0062 kg/m3
240.01 K, 3991.5 kPa, x2 = 0.8 | 41.8987 ± 0.011 kg/m3
240.01 K, 3991.7 kPa, x2 = 0.8 | 41.901 ± 0.011 kg/m3
240.01 K, 6011.9 kPa, x2 = 0.8 | 67.6707 ± 0.016 kg/m3
240.01 K, 6012.2 kPa, x2 = 0.8 | 67.6768 ± 0.016 kg/m3
240.01 K, 7076 kPa, x2 = 0.8 | 82.6152 ± 0.019 kg/m3
240.01 K, 8017.6 kPa, x2 = 0.8 | 96.5609 ± 0.023 kg/m3
240.01 K, 8026.3 kPa, x2 = 0.8998 | 94.9591 ± 0.023 kg/m3
240.01 K, 10028 kPa, x2 = 0.8998 | 127.626 ± 0.03 kg/m3
240.01 K, 10029 kPa, x2 = 0.8998 | 127.633 ± 0.03 kg/m3
240.01 K, 10372 kPa, x2 = 0.8 | 133.317 ± 0.031 kg/m3 and 133.315 ± 0.031 kg/m3
240.01 K, 12048 kPa, x2 = 0.8 | 159.332 ± 0.036 kg/m3
240.01 K, 12090 kPa, x2 = 0.8998 | 160.982 ± 0.037 kg/m3
240.01 K, 13638 kPa, x2 = 0.8 | 182.319 ± 0.041 kg/m3
240.01 K, 15026 kPa, x2 = 0.8998 | 200.798 ± 0.046 kg/m3
240.02 K, 6035.6 kPa, x2 = 0.8998 | 65.6527 ± 0.016 kg/m3
249.91 K, 2443.9 kPa, x2 = 0.8 | 23.1504 ± 0.0066 kg/m3
249.91 K, 2444.1 kPa, x2 = 0.8 | 23.1522 ± 0.0066 kg/m3
249.91 K, 2444.9 kPa, x2 = 0.8 | 23.1598 ± 0.0066 kg/m3
249.91 K, 5015.8 kPa, x2 = 0.8 | 51.0598 ± 0.012 kg/m3
249.91 K, 5016 kPa, x2 = 0.8 | 51.0618 ± 0.012 kg/m3
249.91 K, 7570.5 kPa, x2 = 0.8 | 82.6548 ± 0.019 kg/m3
249.92 K, 7570.8 kPa, x2 = 0.8 | 82.6605 ± 0.019 kg/m3
249.92 K, 8909.9 kPa, x2 = 0.8 | 100.551 ± 0.023 kg/m3
249.92 K, 8910.5 kPa, x2 = 0.8 | 100.56 ± 0.023 kg/m3
249.92 K, 8911 kPa, x2 = 0.8 | 100.565 ± 0.023 kg/m3
249.93 K, 10917 kPa, x2 = 0.8 | 128.204 ± 0.03 kg/m3
249.93 K, 12900 kPa, x2 = 0.8 | 155.107 ± 0.035 kg/m3
249.93 K, 12901 kPa, x2 = 0.8 | 155.123 ± 0.035 kg/m3
249.93 K, 14257 kPa, x2 = 0.8 | 172.455 ± 0.039 kg/m3
249.93 K, 14258 kPa, x2 = 0.8 | 172.479 ± 0.039 kg/m3
249.93 K, 16938 kPa, x2 = 0.8 | 202.973 ± 0.046 kg/m3
249.93 K, 16952 kPa, x2 = 0.8 | 203.124 ± 0.046 kg/m3
249.94 K, 9596 kPa, x2 = 0.8 | 109.925 ± 0.025 kg/m3
249.94 K, 10910 kPa, x2 = 0.8 | 128.101 ± 0.03 kg/m3
249.99 K, 2003.4 kPa, x2 = 0.8998 | 17.6409 ± 0.0061 kg/m3
249.99 K, 2056.7 kPa, x2 = 0.8 | 19.2703 ± 0.0062 kg/m3
249.99 K, 3994.1 kPa, x2 = 0.8998 | 37.4833 ± 0.0094 kg/m3
249.99 K, 3994.2 kPa, x2 = 0.8998 | 37.4837 ± 0.0094 kg/m3
249.99 K, 4008 kPa, x2 = 0.8 | 39.6397 ± 0.0098 kg/m3
249.99 K, 6005.8 kPa, x2 = 0.8998 | 60.2899 ± 0.015 kg/m3
249.99 K, 6017.6 kPa, x2 = 0.8 | 62.9683 ± 0.016 kg/m3
249.99 K, 7544.1 kPa, x2 = 0.8 | 82.2685 ± 0.019 kg/m3
249.99 K, 7544.6 kPa, x2 = 0.8 | 82.2725 ± 0.019 kg/m3
249.99 K, 8074.6 kPa, x2 = 0.8998 | 86.7809 ± 0.021 kg/m3
249.99 K, 8074.9 kPa, x2 = 0.8998 | 86.7846 ± 0.021 kg/m3
249.99 K, 8075.1 kPa, x2 = 0.8998 | 86.7862 ± 0.021 kg/m3
249.99 K, 10120 kPa, x2 = 0.8998 | 115.3 ± 0.027 kg/m3
249.99 K, 10121 kPa, x2 = 0.8 | 117.092 ± 0.028 kg/m3
249.99 K, 12763 kPa, x2 = 0.8998 | 152.294 ± 0.035 kg/m3
